Experimental data: patent US20230278995A1, “1,3,4-OXADIAZOLE DERIVATIVE COMPOUNDS AS HISTONE DEACETYLASE 6 INHIBITOR, AND THE PHARMACEUTICAL COMPOSITION COMPRISING THE SAME” (CHONG KUN DANG PHARMACEUTICAL CORP., priority 2020, published 2023)

Experiments:
human recombinant HDAC1 = biological target: T1, human recombinant HDAC1 (Homo sapiens, UniProt Q13547); experiment: HDAC enzyme activity inhibition assay (HDAC Fluorimetric Drug Discovery Kit), HDAC1; type: biochemical; conditions: human recombinant HDAC1, Fluor de Lys-SIRT1 substrate, 30° C. 60 minutes
T1 construct: purchased Enzo Life Sciences, Inc. BML-SE456
Description: (§1) For the HDAC1 enzyme activity test, human recombinant HDAC1 (BML-SE456) was used as an enzyme source and Fluor de Lys©-SIRT1 (BNL-K1177) was used as a substrate. After dispensing 5-fold diluted compounds into a 96-well plate, 0.3 μg of enzyme and 10 μM substrate were added to each well of the plate and allowed to react at 30° C. for 60 minutes. Next, Fluor de Lys© Developer II (BML-K1176) was added and reacted for 30 minutes to complete the reaction, and then the fluorescence values (Ex 360, Em 460) were measured using a multi-plate reader (Flexstation 3, Molecular Device). The HDAC6 enzymes were tested using human recombinant HDAC6 (382180) from Calbiochem Inc., according to the same protocol as the HDAC1 enzyme activity test method. With respect to the final result values, respective IC50 values were calculated using GraphPad Prism 4.0 program (Table 2).

human recombinant HDAC6 = biological target: T2, human recombinant HDAC6 (Homo sapiens, UniProt Q9UBN7); experiment: HDAC enzyme activity inhibition assay (HDAC Fluorimetric Drug Discovery Kit), HDAC6; type: biochemical; conditions: for HDAC6 selectivity (fold): HDAC1 vs HDAC6; for IC50: human recombinant HDAC6, same protocol as HDAC1
T2 construct: purchased Calbiochem Inc. 382180
T2 sequence (Q9UBN7 1-1215): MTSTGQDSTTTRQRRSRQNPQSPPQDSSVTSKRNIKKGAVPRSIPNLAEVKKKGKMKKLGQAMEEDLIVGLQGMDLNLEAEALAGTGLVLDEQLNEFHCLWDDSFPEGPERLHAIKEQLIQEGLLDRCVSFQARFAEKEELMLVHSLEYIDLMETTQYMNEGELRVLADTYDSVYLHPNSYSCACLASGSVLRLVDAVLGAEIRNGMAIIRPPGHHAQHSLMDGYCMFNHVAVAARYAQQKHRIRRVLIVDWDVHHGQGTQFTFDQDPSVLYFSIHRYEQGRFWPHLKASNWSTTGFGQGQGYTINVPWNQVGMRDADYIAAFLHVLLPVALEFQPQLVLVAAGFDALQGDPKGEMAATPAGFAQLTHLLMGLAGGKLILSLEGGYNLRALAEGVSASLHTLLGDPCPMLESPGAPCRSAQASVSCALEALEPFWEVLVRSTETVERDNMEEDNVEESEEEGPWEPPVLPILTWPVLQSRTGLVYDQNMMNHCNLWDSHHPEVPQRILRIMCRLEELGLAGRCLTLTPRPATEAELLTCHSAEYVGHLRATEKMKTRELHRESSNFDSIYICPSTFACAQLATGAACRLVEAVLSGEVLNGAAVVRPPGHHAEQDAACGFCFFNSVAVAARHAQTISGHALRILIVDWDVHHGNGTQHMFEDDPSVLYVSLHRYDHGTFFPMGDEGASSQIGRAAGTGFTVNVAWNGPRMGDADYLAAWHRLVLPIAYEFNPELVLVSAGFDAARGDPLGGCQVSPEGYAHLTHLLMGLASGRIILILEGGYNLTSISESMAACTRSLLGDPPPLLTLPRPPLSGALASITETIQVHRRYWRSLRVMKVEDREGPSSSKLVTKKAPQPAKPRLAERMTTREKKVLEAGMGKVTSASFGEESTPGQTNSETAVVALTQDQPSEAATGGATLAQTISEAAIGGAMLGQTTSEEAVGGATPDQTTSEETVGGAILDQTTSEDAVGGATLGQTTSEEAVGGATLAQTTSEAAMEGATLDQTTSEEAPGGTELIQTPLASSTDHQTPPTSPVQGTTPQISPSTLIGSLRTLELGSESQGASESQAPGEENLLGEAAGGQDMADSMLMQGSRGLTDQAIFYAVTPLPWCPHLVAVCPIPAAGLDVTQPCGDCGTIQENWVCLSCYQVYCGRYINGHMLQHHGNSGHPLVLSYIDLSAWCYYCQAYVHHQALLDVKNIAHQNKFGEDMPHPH
Description: as §1

T1 sequence (Q13547 whole entry): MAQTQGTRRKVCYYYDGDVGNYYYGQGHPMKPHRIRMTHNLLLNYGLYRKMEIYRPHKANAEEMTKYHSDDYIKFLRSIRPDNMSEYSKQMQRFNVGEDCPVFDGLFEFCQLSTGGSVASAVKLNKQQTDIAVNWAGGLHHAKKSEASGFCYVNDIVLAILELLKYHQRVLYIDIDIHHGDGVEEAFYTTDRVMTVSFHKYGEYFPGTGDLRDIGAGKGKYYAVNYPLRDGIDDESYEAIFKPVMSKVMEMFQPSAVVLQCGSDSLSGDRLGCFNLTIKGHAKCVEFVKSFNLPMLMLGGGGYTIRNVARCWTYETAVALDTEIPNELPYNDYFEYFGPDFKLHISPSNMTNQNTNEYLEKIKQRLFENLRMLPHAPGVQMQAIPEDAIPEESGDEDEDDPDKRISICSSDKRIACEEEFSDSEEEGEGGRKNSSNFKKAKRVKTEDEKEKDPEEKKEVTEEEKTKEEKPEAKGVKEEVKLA

## O=C(C1CCCCC1)N1CC(F)(C(=O)N(Cc2ccc(-c3nnc(C(F)F)o3)cn2)c2cccc(F)c2)C1 [Compound 3170, 1-(cyclohexanecarbonyl)-N-((5-(5-(difluoromethyl)-1,3,4-oxadiazol-2-yl)pyridin-2-yl)methyl)-3-fluoro-N-(3-fluorophenyl)azetidine-3-carboxamide]
Human recombinant HDAC1
  IC50: > 50000 nM
Human recombinant HDAC6
  HDAC6 selectivity (fold): 2,066 fold
  IC50: 24.2 nM

## CC(C)C(=O)N1CCC(F)(C(=O)N(Cc2ccc(-c3nnc(C(F)F)o3)cc2F)c2ccccc2)CC1 [Compound 3440, N-(4-(5-(difluoromethyl)-1,3,4-oxadiazol-2-yl)-2-fluorobenzyl)-4-fluoro-1-isobutyryl N-phenylpiperidine-4-carboxamide]
Human recombinant HDAC1
  IC50: > 50000 nM
Human recombinant HDAC6
  HDAC6 selectivity (fold): 178 fold
  IC50: 280 nM

## O=C(N(Cc1ccc(-c2nnc(C(F)F)o2)cn1)c1cccc(F)c1)C1(F)CN(C2CCSCC2)C1 [Compound 3172, N-((5-(5-(difluoromethyl)-1,3,4-oxadiazol-2-yl)pyridin-2-yl)methyl)-3-fluoro-N-(3-fluorophenyl)-1-(tetrahydro-2H-thiopyran-4-yl)azetidine-3-carboxamide]
Human recombinant HDAC1
  IC50: > 50000 nM
Human recombinant HDAC6
  HDAC6 selectivity (fold): 2,192 fold
  IC50: 22.8 nM

## CS(=O)(=O)N1CC(F)(C(=O)N(Cc2ccc(-c3nnc(C(F)F)o3)cc2F)c2ccccc2)C1 [Compound 3436, N-(4-(5-(difluoromethyl)-1,3,4-oxadiazol-2-yl)-2-fluorobenzyl)-3-fluoro-1-(methylsulfonyl)-N-phenylazetidine-3-carboxamide]
Human recombinant HDAC1
  IC50: > 50000 nM
Human recombinant HDAC6
  HDAC6 selectivity (fold): 378 fold
  IC50: 132 nM

## O=C(C1CC1)N1CC(F)(C(=O)N(Cc2ccc(-c3nnc(C(F)F)o3)cn2)c2ccccc2)C1 [Compound 3158, 1-(cyclopropanecarbonyl)-N-((5-(5-(difluoromethyl)-1,3,4-oxadiazol-2-yl)pyridin-2-yl)methyl)-3-fluoro-N-phenylazetidine-3-carboxamide]
Human recombinant HDAC1
  IC50: > 50000 nM
Human recombinant HDAC6
  HDAC6 selectivity (fold): 1,400 fold
  IC50: 35.7 nM

## O=C(C1CCCC1)N1CC(F)(C(=O)N(Cc2ccc(-c3nnc(C(F)F)o3)cn2)c2cccc(F)c2)C1 [Compound 3169, 1-(cyclopentanecarbonyl)-N-((5-(5-(difluoromethyl)-1,3,4-oxadiazol-2-yl)pyridin-2-yl)methyl)-3-fluoro-N-(3-fluorophenyl)azetidine-3-carboxamide]
Human recombinant HDAC1
  IC50: > 50000 nM
Human recombinant HDAC6
  HDAC6 selectivity (fold): 2,808 fold
  IC50: 17.8 nM

## CC(=O)N1CC(F)(C(=O)N(Cc2ccc(-c3nnc(C(F)F)o3)cn2)c2ccccc2)C1 [Compound 3152, 1-acetyl-N-((5-(5-(difluoromethyl)-1,3,4-oxadiazol-2-yl)pyridin-2-yl)methyl)-3-fluoro-N-phenylazetidine-3-carboxamide]
Human recombinant HDAC1
  IC50: > 50000 nM
Human recombinant HDAC6
  HDAC6 selectivity (fold): 1,377 fold
  IC50: 36.3 nM

## CCCN1CC(N2CC(F)(C(=O)N(Cc3ccc(-c4nnc(C(F)F)o4)cn3)c3ccccc3)C2)C1 [Compound 3107, N-((5-(5-(difluoromethyl)-1,3,4-oxadiazol-2-yl)pyridin-2-yl)methyl)-3-fluoro-N-phenyl-1′-propyl-[1,3′-biazetidine]-3-carboxamide]
Human recombinant HDAC1
  IC50: > 50000 nM
Human recombinant HDAC6
  HDAC6 selectivity (fold): 1,059 fold
  IC50: 47.2 nM

## O=C(N(Cc1ccc(-c2nnc(C(F)F)o2)cn1)c1ccccc1)C1(F)CN(C2CCCCC2)C1 [Compound 2999, 1-cyclohexyl-N-((5-(5-(difluoromethyl)-1,3,4-oxadiazol-2-yl)pyridin-2-yl)methyl)-3-fluoro-N-phenylazetidine-3-carboxamide]
Human recombinant HDAC1
  IC50: > 50000 nM
Human recombinant HDAC6
  HDAC6 selectivity (fold): 801 fold
  IC50: 62.4 nM

## CC(C)CN1CCC(N2CC(F)(C(=O)N(Cc3ccc(-c4nnc(C(F)F)o4)cn3)c3cccc(F)c3)C2)CC1 [Compound 3403, N-((5-(5-(difluoromethyl)-1,3,4-oxadiazol-2-yl)pyridin-2-yl)methyl)-3-fluoro-N-(3-fluorophenyl)-1-(1-isobutylpiperidine-4-yl)azetidine-3-carboxamide]
Human recombinant HDAC1
  IC50: 26300 nM
Human recombinant HDAC6
  HDAC6 selectivity (fold): 911 fold
  IC50: 28.8 nM

## O=C(C1CCC1)N1CC(F)(C(=O)N(Cc2ccc(-c3nnc(C(F)F)o3)cn2)c2cccc(F)c2)C1 [Compound 3168, 1-(cyclobutanecarbonyl)-N-((5-(5-(difluoromethyl)-1,3,4-oxadiazol-2-yl)pyridin-2-yl)methyl)-3-fluoro-N-(3-fluorophenyl)azetidine-3-carboxamide]
Human recombinant HDAC1
  IC50: > 50000 nM
Human recombinant HDAC6
  HDAC6 selectivity (fold): 2,906 fold
  IC50: 17.2 nM

## O=C(N(Cc1ccc(-c2nnc(C(F)F)o2)cc1F)c1ccccc1)C1(F)CCN(C2COC2)CC1 [Compound 2869, N-(4-(5-(difluoromethyl)-1,3,4-oxadiazol-2-yl)-2-fluorobenzyl)-4-fluoro-1-(oxetan-3-yl)-N-phenylpiperidine-4-carboxamide]
Human recombinant HDAC1
  IC50: > 50000 nM
Human recombinant HDAC6
  HDAC6 selectivity (fold): 464 fold
  IC50: 108 nM

## CC(C)CN1CC(F)(C(=O)N(Cc2ccc(-c3nnc(C(F)F)o3)cn2)c2cccc(F)c2)C1 [Compound 3093, N-((5-(5-(difluoromethyl)-1,3,4-oxadiazol-2-yl)pyridin-2-yl)methyl)-3-fluoro-N-(3-fluorophenyl)-1-isobutylazetidine-3-carboxamide]
Human recombinant HDAC1
  IC50: > 50000 nM
Human recombinant HDAC6
  HDAC6 selectivity (fold): 1,543 fold
  IC50: 32.4 nM

## CC(C)N1CCC(F)(C(=O)N(Cc2ccc(-c3nnc(C(F)F)o3)cc2F)c2ccccc2)CC1 [Compound 3437, N-(4-(5-(difluoromethyl)-1,3,4-oxadiazol-2-yl)-2-fluorobenzyl)-4-fluoro-1-isopropyl-N-phenylpiperidine-4-carboxamide]
Human recombinant HDAC1
  IC50: > 50000 nM
Human recombinant HDAC6
  HDAC6 selectivity (fold): 226 fold
  IC50: 221 nM

## O=C(N(Cc1ccc(-c2nnc(C(F)F)o2)cn1)c1cccc(F)c1)C1(F)CN(C2COC2)C1 [Compound 3050, N-((5-(5-(difluoromethyl)-1,3,4-oxadiazol-2-yl)pyridin-2-yl)meth 1)-3-fluoro-N-(3-fluorophenyl)-1-(oxetan-3-yl)azetidine-3-carboxamide]
Human recombinant HDAC1
  IC50: > 50000 nM
Human recombinant HDAC6
  HDAC6 selectivity (fold): 683 fold
  IC50: 73.2 nM

## CN1CC(N2CCC(F)(C(=O)N(Cc3ccc(-c4nnc(C(F)F)o4)cn3)c3cccc(F)c3)CC2)C1 [Compound 3389, N-((5-(5-(difluoromethyl)-1,3,4-oxadiazol-2-yl)pyridin-2-yl)methyl)-4-fluoro-N-(3-fluorophenyl)-1-(1-methylazetidine-3-yl)piperidine-4-carboxamide]
Human recombinant HDAC1
  IC50: 28500 nM
Human recombinant HDAC6
  HDAC6 selectivity (fold): 885 fold
  IC50: 32.2 nM

## CCN1CCC(N2CC(F)(C(=O)N(Cc3ccc(-c4nnc(C(F)F)o4)cn3)c3cccc(F)c3)C2)CC1 [Compound 3400, N-((5-(5-(difluoromethyl)-1,3,4-oxadiazol-2-yl)pyridin-2-yl)methyl)-1-(1-ethylpiperidin-4-yl)-3-fluoro-N-(3-fluorophenyl)azetidine-3-carboxamide]
Human recombinant HDAC1
  IC50: 36600 nM
Human recombinant HDAC6
  HDAC6 selectivity (fold): 1,695 fold
  IC50: 21.6 nM
